The source of these data is the NIST ThermoML archive (doi:10.1016/j.fluid.2014.04.020).

For data set [1] the following is noted: Crystal; DTA.
Data set [2] in a line: Molar enthalpy of transition or fusion. Particulars: Crystal; DSC.

Numbers after ± are expanded uncertainties.

Regarding `CCCCCCCCCC(=O)O` [decanoic acid], the Normal melting temperature in data set [1] is 31.10 ± 0.53 °C. For the same molecule, the “Molar enthalpy of transition or fusion” value in data set [2] was determined as 6.51 ± 0.287 kcal/mol.
`CCCCCCCCCCCC(=O)O` [dodecanoic acid]: in data set [1], the Normal melting temperature was determined as 43.00 ± 0.53 °C. Moreover, the “Molar enthalpy of transition or fusion” value in data set [2] turned out to be 8.48 ± 0.382 kcal/mol.
On the same counts, the results for `CCCCCCCCCCCCCCCCCC` [octadecane] are 27.80 ± 0.53 °C and 14.7 ± 0.645 kcal/mol.
